According to patent US20120245099A1, “APOPTOSIS INDUCER” (NIHON UNIVERSITY, priority 2009, published 2012):

What was measured:
[1] = tested on: P5 cells (vascular endothelial cell line); experiment: Recombinant E3 protein added to cells, LDH activity in culture supernatant (Example 11); format: cell-based; conditions: P5 cells (adherent), 1 ng/ml or 5 ng/ml, 24 hours after addition
Cos cells [2] = experiment: Concentration dependence of recombinant E3 protein, LDH activity in culture supernatant (Example 10); format: cell-based; conditions: 24 hours after addition
Experimental: A recombinant E3 protein produced from transformed E. coli was added at different concentrations (0 to 2.0 ng/ml) to cultured Cos cells. At 24 hours after addition, the culture supernatants were each measured for LDH activity.

Cos cells [3] = experiment: LDH activity in supernatant of Cos cells transformed with E3, E3 mutants or F IX EGF domain (Example 9); format: cell-based; conditions: APtag4 vector, medium replaced 4 hours after gene transfer, measured after further 24 hours
Excerpt: cDNA for E3 (a part of Del-1) or an amino acid substitution mutant thereof was integrated into an AP expression vector (APtag4) and then introduced into cultured Cos cells. Likewise, cDNA for the EGF domain of blood coagulation factor IX (F IX; cDNA: SEQ ID NO: 24, amino acid sequence: SEQ ID NO: 25) was also integrated into APtag4 and then introduced into cultured Cos cells. As a control, an AP expression vector free from the above cDNAs for E3 and so on was used. It should be noted that the amino acid substitution mutants of E3 used for the above purpose were E3 D136E (cDNA: SEQ ID NO: 34, amino acid sequence: SEQ ID NO: 35), E3 D136N (cDNA: SEQ ID NO: 36, amino acid sequence: SEQ ID NO: 37) and E3 Y141F (cDNA: SEQ ID NO: 38, amino acid sequence: SEQ ID NO: 39). […] At 4 hours after gene transfer, the medium in each case was replaced with fresh culture medium and, after further 24 hours, the supernatant was measured for LDH activity. A cell lysate was prepared for each case and measured for LacZ activity. […]

[4] = tested on: MEL cells (mouse leukemia cells); experiment: Recombinant E3 protein added to cells, LDH activity in culture supernatant (Example 11); format: cell-based; conditions: MEL cells (floating), 1 ng/ml or 5 ng/ml, 24 hours after addition
Cos cells [5] = experiment: Recombinant E3 protein added to cultured Cos cells, H33342 staining (Example 8); format: cell-based; conditions: recombinant protein from E. coli, 24 hours after addition
Experimental: To cultured Cos cells, a recombinant E3 protein produced from transformed E. coli was added. At 24 hours after addition, the cells were stained with H33342 and observed under a phase contrast microscope and a fluorescent microscope.

[6] = tested on: CRL cells (human melanoma cells); experiment: Recombinant E3 protein added to cells, LDH activity in culture supernatant (Example 11); format: cell-based; conditions: CRL cells (adherent), 1 ng/ml or 5 ng/ml, 24 hours after addition
Cos cells [7] = experiment: LDH activity in supernatant of Cos cells transformed with cDNA for Del-1 or its parts (Example 7); format: cell-based; conditions: APtag4 vector, medium replaced 24 hours after gene transfer, measured after further one hour
Excerpt: cDNA for full-length Del-1 (SEQ ID NO: 4) was integrated into an AP expression vector (APtag4) and then introduced into cultured Cos cells. Likewise, cDNA for a part of Del-1 was also integrated into APtag4 and then introduced into cultured Cos cells. As a control, an AP expression vector free from the above cDNA for full-length Del-1 or a part thereof was used. It should be noted that the members each used as a part of Del-1 were EGF-like domains in the full-length Del-1 protein, i.e., EGF1 (E1; cDNA: SEQ ID NO: 26, amino acid sequence: SEQ ID NO: 27), EGF2 (E2; cDNA: SEQ ID NO: 28, amino acid sequence: SEQ ID NO: 29) and EGF3 (E3; cDNA: SEQ ID NO: 6, amino acid sequence: SEQ ID NO: 7), a fusion protein between discoidin I-like domains, i.e., Discoidin1 and Discoidin2 (C1C2; cDNA: SEQ ID NO: 30, amino acid sequence: SEQ ID NO: 31), an amino acid substitution (D136E) mutant of the above full-length Del-1 (Del1m; cDNA: SEQ ID NO: 32, amino acid sequence: SEQ ID NO: 33), as well as an amino acid substitution (D136E) mutant of E3, i.e., E3 D136E (E3m; cDNA: SEQ ID NO: 34, amino acid sequence: SEQ ID NO: 35). […] At 24 hours after gene transfer, the medium in each case was replaced with fresh culture medium and, after further one hour, the supernatant was measured for LDH activity. A cell lysate was prepared for each case and measured for LacZ activity. […]

[8] = tested on: SCCKN cells (human oral squamous cell carcinoma-derived cell line); experiment: Tumor-transplanted model mice, intratumoral gene transfer, tumor size over time (Example 12); format: in vivo; conditions: nude mice with SCCKN tumors, 10 μg DNA, Day0 to Day7
Experimental: For measurement of tumor size, the long axis and short axis of each tumor were measured with a ruler and multiplied by each other. In the figure, the tumor size (vertical axis) is expressed as a relative value (mean±SD), assuming that the value obtained at the time of gene transfer is set to 1.
Using tumor-transplanted model mice, a peptide containing the EGF3 domain, which is a part of Del-1, was studied for its therapeutic effect on tumor. More specifically, this peptide was verified as to whether its combined use with the FasL (Fas ligand) protein, whose antitumor effect has already been established, would enhance the antitumor effect when compared to FasL alone. […]
Then, 5×10^6 SCCKN cells (human oral squamous cell carcinoma-derived cell line) were injected under the dorsal skin of nude mice at 5 weeks of age. The mice were then measured over time for their tumor size. […]
The tumor size after gene transfer was measured over time (for 7 days: Day0 to Day7), and the results obtained are shown in FIG. 12.

“E3: EGF3 EGF-like domain of Del-1, amino acids 123-157, SEQ ID NO: 7 (CEAEPCRNGGICTDLVANYSCECPGEFMGRNCQYK; listed as Mus musculus)” was tested. Which “cytotoxic activity (apoptosis induction), LDH activity” value [1] did it give?
The value was “showed cytotoxic activity”.

What about the “E3 protein concentration effective for apoptosis induction (LDH activity)” value (Cos cells [2]; 0 to 2.0 ng/ml) of the same molecule?
Its value is at least 0.4 ng/mL.

What about the “E3 protein concentration above which the effect on apoptosis induction remained unchanged” value (Cos cells [2]) of the same molecule?
Its value is “higher than 1 ng/ml”.

What about the “LDH activity of supernatant, normalized by LacZ activity” value (Cos cells [3]) of the same molecule?
Its value is “high LDH activity”.

And the “cytotoxic activity, LDH activity” value [4]?
The value was “no cytotoxic activity”.

And the “chromosome aggregation (H33342 nuclear staining)” value (Cos cells [5])?
The value was “chromosomes were aggregated”.

And the “cytotoxic activity (apoptosis induction), LDH activity” value [6]?
The value was “showed cytotoxic activity”.

“E3m: amino acid substitution (D136E) mutant of E3, SEQ ID NO: 35 (CEAEPCRNGGICTELVANYSCECPGEFMGRNCQYK; listed as Mus musculus)” was tested. Which “increase in LDH activity of supernatant, normalized by LacZ activity” value (Cos cells [7]) did it give?
The value was “lost”.

For “F IX: EGF domain of blood coagulation factor IX, SEQ ID NO: 25 (CESNPCLNGGICKDDISSYECWCQVGFEGRNCEL; listed as Mus musculus)”, which “LDH activity of supernatant, normalized by LacZ activity” value (Cos cells [3]) is on record?
The value was “high LDH activity”.

B1: E3C1: fusion peptide between EGF3 domain and Discoidin1, amino acids 123 to 319 of mouse Del-1, SEQ ID NO: 42 (protein, listed as Mus musculus)
chain: CEAEPCRNGGICTDLVANYSCECPGEFMGRNCQYKCSGPLGIEGGIISNQQITASSTHRALFGLRKWYPYYARLNKKGLINAWTAAENDRWPWIQINLQRKMRVTGVITQGAKRIGSPEYIKSYKIAYSNDGKTWAMYKVKGTNEEMVFRGNVDNNTPYANSFTPPIKAQYVRLYPQICRRHCTLRMELLGCELSGC
For B1, which “antitumor effect (tumor size) of E3C1 cDNA together with FasL cDNA compared with FasL alone” value [8] is on record?
Its value is “higher antitumor effect”.
